Columns and labels:
[1] = test system: Pyruvate Dehydrogenase beta (PDH-E1); test: Western blot, Pyruvate Dehydrogenase Beta levels; type: cell-based, human
Method: The pyruvate kinase blots were stripped by incubating for 30 minutes with methanol, followed by two 10 minute washes with TBS-T, then 30 minutes of incubation with Stripping buffer at 50 deg C., and followed by two washes with 100 ml or more of TBS-T for 30′ each. The 2 blots were scanned in laser scanner to check for complete stripping. After making sure stripping of the antibody and the ECF reagent has worked, the blots were activated with methanol for 5 seconds, washed with water for 5 minutes, and TBST for 15 minutes. The blots are blocked for 1 hour with 5% blocking reagent in TBS-T at room temperature and then washed 3 times with TBS-T (1×-15′; 2×5′ each) and probed with the antibody for Pyruvate Dehydrogenase in 5% BSA (ABNOVA catalog # H00005162-M03) at 1:500 dilutions) overnight at 4 deg C. with shaking. After the overnight incubation with primary antibody for Pyruvate Dehydrogenase, the membranes were washed 3 times with TBS-T (1×-15′; 2×5′ each) and probed with the secondary antibody (antimouse; 1:10,000 dilution) for 1 h on the orbital tilting shaker at room temperature. […]
The levels of LDH and PDH were determined by probing the blots successively with primary antibodies for LDH and PDH, essentially as described above. […]

HDFa cells = test: Oxygen consumption rate (OCR), SeaHorse XF analyzer; type: cell-based, human; conditions: normal cells (HDFa)
From the text: (SeaHorse Biosciences Inc, North Billerica, Mass.).
In this experiment, the OCR and extracellular acidification rate (ECAR) in normal cells lines were obtained in the presence and absence of CoQ10 to determine baseline values. It was observed that in its native nutrient environment, the basal OCR rates in normal cells lines are different, and are usually a function of the physiological roles of the cells in the body.
FIGS. 37 and 38 below describes the OCR in HDFa and HASMC cells grown in physiologically normal glucose (about 4.6 mM) and high glucose (hyperglycemic) conditions.

COC1=C(OC)C(=O)C(C/C=C(\C)CC/C=C(\C)CC/C=C(\C)CC/C=C(\C)CC/C=C(\C)CC/C=C(\C)CC/C=C(\C)CC/C=C(\C)CC/C=C(\C)CCC=C(C)C)=C(C)C1=O [Q10, Coenzyme Q10]
Pyruvate Dehydrogenase Beta Normalized Volume (48 h) ([1]; HepG2, 5g glucose, 48 h, amount 50): 123
Pyruvate Dehydrogenase Beta Normalized Volume (24 h) ([1]; HepG2, 22G glucose, 24 h, amount 100): 340
OCR (HDFa cells): influenced OCR
